Laboratory results reported in PMC6657890 (PLoS ONE, 2019).

Target: T1, CV-IIL (Chromobacterium violaceum, UniProt Q7NX84)
T1 construct: gene CV_1744
Format: binding

T1 sequence (Q7NX84 2-114 limits assumed): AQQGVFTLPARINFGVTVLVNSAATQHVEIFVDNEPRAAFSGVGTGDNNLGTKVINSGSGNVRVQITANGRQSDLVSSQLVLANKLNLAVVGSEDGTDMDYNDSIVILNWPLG

Row | Structure (SMILES) | Kd [µM]
1 | OC[C@H]1OC(O)[C@@H](O)[C@@H](O)[C@@H]1O (stereo partly drawn) [D-mannose] | 25.6
2 | C[C@@H]1OC(O)[C@@H](O)[C@H](O)[C@@H]1O (stereo partly drawn) [L-fucose] | 8.2
